Reference: article PMC8433833, “Heteroleptic Oxidovanadium(V) Complexes with Activity against Infective and Non-Infective Stages of Trypanosoma cruzi” (Molecules, 2021)
Where two headings read alike, the source gives them in different places.

Columns and labels:
[1] = system: T. cruzi trypomastigotes (CL Brener strain); test: In vitro activity against cell-derived trypomastigotes of T. cruzi (alamar Blue); type: cell-based, Trypanosoma cruzi; details: for IC50: Trypanosoma cruzi, 24 h, read-out: IC50 Trypomastigotes T. cruzi ± SD
[2] = system: T. cruzi epimastigotes (CL Brener strain); test: In vitro activity against epimastigotes of T. cruzi (alamar Blue); type: cell-based, Trypanosoma cruzi; details: for IC50: Trypanosoma cruzi, 24 h, read-out: IC50 Epimastigotes T. cruzi ± SD
VERO cells [3] = system: VERO cells; design: method as in doi:10.1039/C9NJ02589H; details: ref [42], read-out: IC50 VERO ± SD; cited from earlier work
[4] = system: Caenorhabditis elegans Bristol strain N2; test: In vivo toxicity on C. elegans (motility, viability, development); details: C. elegans L4, 2 µM, positive control
Description: The wild-type Caenorhabditis elegans (C. elegans) Bristol strain N2 and Escherichia coli (E. coli) OP50 strain were obtained from the Caenorhabditis Genomics Center (Minneapolis, MN, USA). Worms were maintained under standard conditions at 20 °C on Nematode Growth Media (NGM) agar plates seeded with E. coli OP50 as a source of food as previously described. The method used to assess toxicity is based on worm motility according to previously described. Briefly, the locomotor activity recording system, WMicrotracker^TM ONE (PhylumTech, Santa Fe, Argentina) detects infrared microbeam interruptions. Synchronized L4 C. elegans worms were removed from culture plates and washed three times with M9 buffer (3 g KH2PO4; 6 g Na2HPO4; 5 g NaCl; 1 mL 1 M MgSO4 per liter) by centrifugation at 1000 g. Worms in M9 1% DMSO were plated in 96-well flat microtiter plates (Deltalab, Barcelona, Spain). Approximately 70 worms per well were seeded in 60 µL M9 buffer containing 1% DMSO and their basal movement was measured for 30 min to normalize the movement activity for each well at the beginning of the assay. Then, compound [V^VO(IN-2H)(L2-H)] dissolved in M9 buffer 1% DMSO was added to a final concentration range of 6.5–100 µM in a final volume of 100 µL per well. […] The motility using WMicrotracker^TM ONE was measured for 18 h. […]

calf thymus DNA (ctDNA) = test: Competitive binding to {DNA-EB} adduct by fluorescence; details: ctDNA 1.5 μM, EB 0.75 μM, 10 mM Tris-HCl pH 7.4, DMSO ≤5% v/v
Description: Experiments for competitive binding to calf thymus DNA (ctDNA, SIGMA, Type I, No. D-1501, St. […] Millipore water was used for the preparation of solutions of the complexes for the studies and for buffer solution. Fluorescence measurements were performed as titration using a fixed concentration of ctDNA and EB while gradually increasing the concentration of the [V^VO(IN-2H)(L2-H)] complex, L2 and IN free ligands. ctDNA stock solutions were prepared by hydrating ctDNA in Tris-HCl buffer (1 mg mL^−1, ~2 mM nuc^−1). This solution was allowed to stand at 4 °C. The concentration of the stock solution was determined by UV spectrophotometry using the molar absorption coefficient ε (260 nm) = 6600 M^−1cm^−1nuc^−1 [76]. An EB 0.5 mM solution was prepared in Tris-HCl buffer. Due to the low solubility of the complexes in aqueous media, DMSO was used to prepare concentrated stock solutions, followed by appropriate dilution. […] Fluorescence spectra were recorded from 540 nm to 680 nm at an excitation wavelength of 510 nm on a Shimadzu RF 5301 spectrofluorimeter (Kyoto, Japan) and in a 10.0 × 10.0 mm^2 quartz cuvette. Samples with only compounds and ctDNA (without EB) were used as blanks and subtracted from the sample spectra. […] KSV were determined from the plot of F0/F versus [Q].

VERO cells [5] = test: Cytotoxicity on VERO cells (MTT assay); type: cell-based, African green monkeys; details: Primates, 24 h, read-out: IC50 VERO ± SD
Description: VERO cells. VERO cells (ATCC CCL81, Manassas, VA, USA) were used as mammalian cell model for testing unspecific cytotoxicity. This cell lineage was isolated from kidney epithelial cells from African green monkeys and is widely used for phenotypic screening of drugs as it is regarded as a normal cell derived from epithelial tissue.
Cells were cultured in RPMI medium (Gibco, Grand Island, NY, USA) supplemented with 10% heat inactivated fetal bovine serum, penicillin (100 units/mL) and streptomycin (100 µg/mL) at 37 °C in a humidified 5% CO2 incubator. For maintenance, confluent cells were washed with PBS, incubated for 3 min with trypsin-EDTA (Gibco), diluted and re-plated.
The compounds were initially dissolved in DMSO (stock concentration). […]
For the cytotoxicity assay, 10,000 cells per well were seeded in a 96-well plate in RPMI medium and were incubated at 37 °C in a 5% CO2 atmosphere. […] Cell viability was assessed using MTT (3-(4, 5-dimethylthiazolyl-2)-2, 5-diphenyltetrazolium bromide) assay, where MTT is reduced by metabolically active cells to generate reducing equivalents such as NADH and NADPH, resulting in the formation of an intracellular purple formazan which can be solubilized by the addition of DMSO. […] Plates were kept for 15 min with agitation and absorbance was measured at 570 nm in a Thermo Scientific Varioskan® Flash Multimode instrument (Waltham, MA, USA). […]

Row | Compound | IC50 ([1]; CL Brener strain, cell-derived) | IC50 ([2]; CL Brener strain) | IC50 (VERO cells [3]) | further results
1 | Oc1cccc2cccnc12 [L0] | – | – | 10.1 ± 3.9 µM | IC50 [1]: 470 ± 70 nM; IC50 [2]: 9.42 ± 2.23 µM
2 | CC1CS(=O)(=O)CCN1/N=C/c1ccc([N+](=O)[O-])o1 (centres unmarked) [Nifurtimox] | 20100 ± 2860 nM | 3.68 ± 0.71 µM | 998 ± 90.6 µM | –
3 | ivermectin | – | – | – | effect on worm motility [4]: reduced motility to zero
4 | O=C(N/N=C/c1c(O)ccc2ccccc12)c1ccncc1 [IN] | > 20000 nM | > 20 µM | – | log (KSV), Stern–Volmer constant for competitive binding to {DNA-EB} adduct (calf thymus DNA (ctDNA)): 4.29; IC50 (VERO cells [5]): 22.6 ± 3.7 µM; activity on trypomastigotes (in words) [1]: negligible activity; activity on epimastigotes (in words) [2]: negligible activity

More lines, main results first:

Row | IC50 ([1]; CL Brener strain, cell-derived) | IC50 ([2]; CL Brener strain) | Compound | IC50 (VERO cells [3]) | further results
5 | 1010 ± 730 nM | 2.58 ± 0.56 µM | O=[N+]([O-])c1ccc(O)c2ncccc12 [L4] | 12.5 ± 4.5 µM | –
6 | 2250 ± 950 nM | 7.17 ± 1.07 µM | Oc1c(Cl)cc(Cl)c2cccnc12 [L1, 5,7-dichloro-8-hydroxyquinolne] | 66.5 ± 13.1 µM | –
7 | 1100 ± 880 nM | 2.17 ± 0.35 µM | Oc1c(I)cc(I)c2cccnc12 [L3] | 75.5 ± 16.3 µM | –
8 | 400 ± 80 nM | 2.76 ± 0.52 µM | Oc1c(I)cc(Cl)c2cccnc12 [L2, 5-chloro-7-iodo-8-hydroxyquinoline] | 64.7 ± 9.1 µM | log (KSV), Stern–Volmer constant for competitive binding to {DNA-EB} adduct (calf thymus DNA (ctDNA)): 4.68
